From patent US9682995B2, “Amino-substituted isothiazoles” (BAYER PHARMA AKTIENGESELLSCHAFT, priority 2013, dated 2017)

How the values were obtained:
Format in all cases: cell-based
NCI-H460 = assay: Proliferation assay (crystal violet), NCI-H460; settings: Homo sapiens, 96 h; NCI-H460, 4 days; read-out: Inhibition of proliferation IC50 NCI-H460
Experimental: (§1) Cultivated tumor cells (cells were ordered from ATCC, except HeLa-MaTu and HeLa-MaTu-ADR, which were ordered from EPO-GmbH, Berlin) were plated at a density of 1000 to 5000 cells/well, depending on the growth rate of the respective cell line, in a 96-well multititer plate in 200 μL of their respective growth medium supplemented 10% fetal calf serum. After 24 hours, the cells of one plate (zero-point plate) were stained with crystal violet (see below), while the medium of the other plates was replaced by fresh culture medium (200 μl), to which the test substances were added in various concentrations (0 μM, as well as in the range of 0.001-10 μM; the final concentration of the solvent dimethyl sulfoxide was 0.5%). The cells were incubated for 4 days in the presence of test substances. Cell proliferation was determined by staining the cells with crystal violet: the cells were fixed by adding 20 μl/measuring point of an 11% glutaric aldehyde solution for 15 minutes at room temperature. After three washing cycles of the fixed cells with water, the plates were dried at room temperature. The cells were stained by adding 100 μl/measuring point of a 0.1% crystal violet solution (pH 3.0). After three washing cycles of the stained cells with water, the plates were dried at room temperature. The dye was dissolved by adding 100 μl/measuring point of a 10% acetic acid solution. Absorption was determined by photometry at a wavelength of 595 nm. The change of cell number, in percent, was calculated by normalization of the measured values to the absorption values of the zero-point plate (=0%) and the absorption of the untreated (0 μm) cells (=100%). The IC50 values were determined by means of a 4 parameter fit.

Caco2 = assay: Proliferation assay (crystal violet), Caco2; settings: Homo sapiens, Caco-2, 96 h; Caco2, 4 days; read-out: Inhibition of proliferation IC50 Caco2
Experimental: as §1

B16F10 = assay: Proliferation assay (crystal violet), B16F10; settings: Mus musculus, B16-F10, 96 h; B16F10, 4 days; read-out: Inhibition of proliferation IC50 B16F10
Experimental: as §1

DU145 = assay: Proliferation assay (crystal violet), DU145; settings: Homo sapiens, DU-145, 96 h; DU145, 4 days; read-out: Inhibition of proliferation IC50 DU145
Experimental: as §1

HeLa-MaTu-ADR = assay: Proliferation assay (crystal violet), HeLa-MaTu-ADR; settings: 96 h, 4 days, read-out: Inhibition of proliferation IC50 HeLa-MaTu-ADR
Experimental: as §1

SMILES | IC50 (NCI-H460) [nM] | IC50 (Caco2) [nM] | IC50 (B16F10) [nM] | IC50 (DU145) [nM] | IC50 (HeLa-MaTu-ADR) [nM]
Cc1nsc(Nc2cnc3cc(C(F)(F)F)ccc3n2)c1C(=O)Nc1ccc(Cl)c(F)c1 [Example 68, N-(4-Chloro-3-fluorophenyl)-3-methyl-5-{[6-(trifluoromethyl)quinoxalin-2-yl]amino}-1,2-thiazole-4-carboxamide] | 350 | 240 | 330 | 570 | 320
Cc1nsc(Nc2ccc(C#N)cn2)c1C(=O)Nc1ccc(Cl)c(Cl)c1 [Example 62, 5-[(5-Cyanopyridin-2-yl)amino]-N-(3,4-dichlorophenyl)-3-methyl-1,2-thiazole-4-carboxamide] | 140 | 190 | 140 | 290 | –
Cc1nsc(Nc2ccc(C(F)(F)F)nn2)c1C(=O)Nc1ccc(F)c(F)c1 [Example 83, N-(3,4-Difluorophenyl)-3-methyl-5-{[6-(trifluoromethyl)pyridazin-3-yl]amino}-1,2-thiazole-4-carboxamide] | 260 | 350 | 250 | 740 | 370
CCc1ccccc1NC(=O)c1c(C)nsc1Nc1cc(C#N)ccn1 [Example 4, 5-[(4-Cyanopyridin-2-yl)amino]-N-(2-ethylphenyl)-3-methyl-1,2-thiazole-4-carboxamide] | 2000 | 2400 | 2700 | 6900 | 1800
COc1ccc(NC(=O)c2c(C)nsc2Nc2cncc(C(F)(F)F)n2)cn1 [Example 84, N-(6-methoxypyridin-3-yl)-3-methyl-5-{[6-(trifluoromethyl)pyrazin-2-yl]amino}-1,2-thiazole-4-carboxamide] | 180 | 240 | 290 | 840 | 330
CCc1ccccc1NC(=O)c1c(C)nsc1Nc1cnc2cc(Cl)ccc2n1 [Example 86, 5-[(6-Chloroquinoxalin-2-yl)amino]-N-(2-ethylphenyl)-3-methyl-1,2-thiazole-4-carboxamide] | 170 | 310 | 320 | 510 | 260
Cc1nsc(Nc2cncc(-n3cccn3)n2)c1C(=O)Nc1ccc(Cl)c(F)c1 [Example 67, N-(4-Chloro-3-fluorophenyl)-3-methyl-5-{[6-(1H-pyrazol-1-yl)pyrazin-2-yl]amino}-1,2-thiazole-4-carboxamide] | 210 | 210 | 160 | 320 | 180
COc1ccc(NC(=O)c2c(C)nsc2Nc2cnc(C(F)(F)F)cn2)cn1 [Example 85, N-(6-methoxypyridin-3-yl)-3-methyl-5-{[5-(trifluoromethyl)pyrazin-2-yl]amino}-1,2-thiazole-4-carboxamide] | 420 | 370 | 500 | 700 | 360
Cc1nsc(Nc2cnc3cc(C(F)(F)F)ccc3n2)c1C(=O)Nc1ccc(F)c(F)c1 [Example 60, N-(3,4-Difluorophenyl)-3-methyl-5-{[6-(trifluoromethyl)quinoxalin-2-yl]amino}-1,2-thiazole-4-carboxamide] | 230 | 220 | 250 | 430 | 240
Cc1nsc(Nc2cncc(-n3cccn3)n2)c1C(=O)Nc1ccc(F)c(F)c1 [Example 64, N-(3,4-Difluorophenyl)-3-methyl-5-{[6-(1H-pyrazol-1-yl)pyrazin-2-yl]amino}-1,2-thiazole-4-carboxamide] | 260 | 720 | 470 | 470 | 270

Now from value to molecule:

IC50 (NCI-H460) [nM] | IC50 (Caco2) [nM] | IC50 (B16F10) [nM] | IC50 (DU145) [nM] | IC50 (HeLa-MaTu-ADR) [nM] | SMILES
240 | 210 | 200 | 680 | 230 | Cc1nsc(Nc2cnc(C(F)(F)F)cn2)c1C(=O)Nc1ccc(F)c(F)c1 [Example 81, N-(3,4-Difluorophenyl)-3-methyl-5-{[5-(trifluoromethyl)pyrazin-2-yl]amino}-1,2-thiazole-4-carboxamide]
120 | 160 | 170 | 190 | 130 | Cc1nsc(Nc2cnc(Cl)cn2)c1C(=O)Nc1ccc(F)c(F)c1 [Example 74, 5-[(5-Chloropyrazin-2-yl)amino]-N-(3,4-difluorophenyl)-3-methyl-1,2-thiazole-4-carboxamide]
2900 | 1300 | 3000 | 2900 | 530 | CNC(=O)c1cnc(Nc2snc(C)c2C(=O)Nc2ccc(F)c(F)c2)cn1 [Example 75, 5-({4-[(3,4-Difluorophenyl)carbamoyl]-3-methyl-1,2-thiazol-5-yl}amino)-N-methylpyrazine-2-carboxamide]
180 | 240 | 220 | 430 | 230 | Cc1nsc(Nc2cncc(Cl)n2)c1C(=O)Nc1ccc(F)c(F)c1 [Example 71, 5-[(6-Chloropyrazin-2-yl)amino]-N-(3,4-difluorophenyl)-3-methyl-1,2-thiazole-4-carboxamide]
340 | 350 | 510 | 650 | 350 | CCc1cnc(Nc2snc(C)c2C(=O)Nc2ccc(F)c(F)c2)cn1 [Example 79, N-(3,4-Difluorophenyl)-5-[(5-ethylpyrazin-2-yl)amino]-3-methyl-1,2-thiazole-4-carboxamide]
3000 | 1500 | 2000 | 3000 | 1100 | CCNc1cncc(Nc2snc(C)c2C(=O)Nc2ccc(F)c(F)c2)n1 [Example 78, N-(3,4-Difluorophenyl)-5-{[6-(ethylamino)pyrazin-2-yl]amino}-3-methyl-1,2-thiazole-4-carboxamide]
180 | 180 | 220 | 280 | 94 | Cc1nsc(Nc2cnc(Br)cn2)c1C(=O)Nc1ccc(F)c(F)c1 [Example 77, 5-[(5-Bromopyrazin-2-yl)amino]-N-(3,4-difluorophenyl)-3-methyl-1,2-thiazole-4-carboxamide]
620 | 320 | 390 | 510 | 100 | CCNC(=O)c1cncc(Nc2snc(C)c2C(=O)Nc2ccc(F)c(F)c2)n1 [Example 73, 6-({4-[(3,4-Difluorophenyl)carbamoyl]-3-methyl-1,2-thiazol-5-yl}amino)-N-ethylpyrazine-2-carboxamide]
56 | 170 | 140 | 270 | 130 | Cc1nsc(Nc2cncc(C(F)(F)F)n2)c1C(=O)Nc1ccc(F)c(F)c1 [Example 82, N-(3,4-Difluorophenyl)-3-methyl-5-{[6-(trifluoromethyl)pyrazin-2-yl]amino}-1,2-thiazole-4-carboxamide]
